Earlier results as cited in patent EP0424553A1, “Substituted phenoxy alkanols for treatment of contact hypersensitivity” (priority 1989, dated 1991).

What was measured:
[1] = tested on: rat mast cells; settings: mediated by IgE- anti-IgE reaction
[2] = tested on: anaphylactic histamine release; settings: compared with chlorphenesin

Compound | degranulation of the rat mast cells [1] | anaphylactic histamine release-preventive effect [2]
O=C(O)c1cc(=O)c2c(OCC(O)COc3cccc4oc(C(=O)O)cc(=O)c34)cccc2o1 [cromolyn sodium] | inhibited | –
chlorphenesin succinate | – | much superior to chlorphenesin
